According to patent publication US4229461A, “Fungicidal 6-(3,5-dichlorophenyl)perhydroimidazo[5,1-b]thiazole derivatives” (Mitsubishi Chemical Industries Limited, priority 1978, dated 1980):
≈ marks a conversion by molar mass, not a printed value.

Experiments:
Sclerotinia sclerotiorum [1] = assay: Preventive test against kidney bean stem rot; assay type: in vivo; settings: 4 days, 25° C.
Procedure: Kidney bean plants (cultivar: Kintoki) were each grown in a 15 cm.phi. plastic pot to the trifoliate stage. The plants were sprayed with 10 ml/l pot of an aqueous diluted suspension of wettable powders of the chemicals of the invention and comparison chemical.
The wettable powders were prepared in a manner similar to example 1. After air drying for 5 hours, the plants were inoculated with mecelia of Sclerotinia sclerotiorum incubated with shaking in a Yeast-Glucose liquid medium, and kept in a humidic chamber at 25° C. for 4 days. Then the preventive value was calculated according to the equation given in test example 1.

Altrenaria Kikuchiana = assay: Antifungal Test (PDA medium), Altrenaria Kikuchiana; assay type: cell-based; settings: 96 h, 25° C., 4 days, read-out: MIC Concentration
Procedure: (§1) Each chemical was mixed with PDA medium in an amount enough to obtain the pre-determined concentration level and solidified in 9 cm.phi. Petri dish. Then, various plant disease fungi were inoculated on the middle of the mixed agar plate and cultured at 25° C. for 4 days.
(§2) The minimum inhibition concentration (MIC) means that at which the development of the inoculated fungus was not recognized with the naked eye.

[2] = test system: Botrytis cinerea (strain I); assay: Antifungal Test (PDA medium), Botrytis cinerea (strain I); assay type: cell-based; settings: 96 h, 25° C., 4 days, read-out: MIC Concentration
Procedure: as §1, §2

[3] = test system: Botrytis cinerea (strain II); assay: Antifungal Test (PDA medium), Botrytis cinerea (strain II); assay type: cell-based; settings: 96 h, resistant to benzoimidazole type fungicide, 25° C., 4 days, read-out: MIC Concentration
Procedure: as §1, §2
*Botrytis cinerea (strain II) is the strain resistant to
benzoimidazoletype fungicide e.g. Benlate, TopsinM.

Altrenaria mali = assay: Antifungal Test (PDA medium), Altrenaria mali; assay type: cell-based; settings: 96 h, 25° C., 4 days, read-out: MIC Concentration
Procedure: as §1, §2

Cochliobolus miyabeans = assay: Preventive test against Rice brown spot disease; assay type: in vivo, Cochliobolus miyabeans on rice plants (cultivar: Kinmaze); settings: Oryza sativa, 48 h, read-out: Preventive Value
Procedure: Rice plants (cultivar: Kinmaze) were each grown in a 10 cm.phi. porcelain pot to the 3-4 leaves stage. The plants were sprayed with 10 ml/l pot of aqueous diluted suspensions of various types of wettable powders of the chemicals of the invention and comparison chemical [bis(dimethyl thiocarbamoyl)disulfide). The wettable powders were prepared in a manner similar to test example 1.
After air drying for 5 hours, the plants were inoculated with a spore suspension of Cochliobolus miyabeans incubated with a chaffy medium at 25° C. for 5 days.
These plants were kept in the humidic chamber at 27° C. for 48 hours after inoculation and the number of lesions were counted and preventive value was calculated according to the following equation. [formula]

Botrytis allii = assay: Antifungal Test (PDA medium), Botrytis allii; assay type: cell-based; settings: 96 h, 25° C., 4 days, read-out: MIC Concentration
Procedure: as §1, §2

Botrytis cinerea = assay: Preventive test against Cucumber Gray Mold disease; assay type: in vivo; settings: 96 h, 4 days after inoculation, 23° C.
Procedure: Cucumber plants (cultivar: Satsukimidori), were each grown in a 15 cm.phi. plastic pot to the first leaf stage. The plants were sprayed with 10 ml/l pot of aqueous diluted suspensions of various types of wettable powders (including the wettable powder containing, as its active ingredient, compound No. 1 obtained in the Preparation Example 1, wettable powders, containing as active ingredients compounds Nos. 2-10 obtained in a manner similar to Preparation Example 1, and a wettable powder for a comparison chemical containing, as its active ingredient, tetrachloroisophthalonitrile obtained in manner similar to Preparation Example 1). After air-drying for 5 hours, the plants were inoculated with the mecelia of Botrytis cinerea inoculated with shaking in Yeast-Glucose liquid medium.
The cucumbers were kept in the humidic chamber at 23° C. for 4 days after inoculation and then checked with respect to their disease index. The checking was conducted as follows: The leaves were checked to determine the extent of lesion area and classified into six groups as indicated by indices 0, 1, 2, 3, 4, 5 based on the extent of the lesions and on the numbers of leaves n0, n1, n2, n3, n4, and n5 which corresponded to the indices, respectively, were also determined to calculate the disease index from the following equation.
1 lesion area of 1/5 times the total leaf area
2 lesion area of 2/5 times the total leaf area
3 lesion area of 3/5 times the total leaf area
4 lesion area of 4/5 times the total leaf area
5 lesion area above 4/5 times the total leaf area
(where n is the total number of checked leaves)
The preventive value was calculated from the following equation. [formula]

Sclerotinia sclerotiorum [4] = assay: Antifungal Test (PDA medium), Sclerotinia sclerotiorum; assay type: cell-based; settings: 96 h, 25° C., 4 days, read-out: MIC Concentration
Procedure: as §1, §2

Nc1c(Cl)cc([N+](=O)[O-])cc1Cl [2,6dichloro-4-nitroaniline, reference compound]
Preventive Value (Sclerotinia sclerotiorum [1]; 500 ppm): 70.5%

CCCCNC(=O)n1c(NC(=O)OC)nc2ccccc21 [Benlate, reference compound]
MIC (Altrenaria Kikuchiana): > 100 µg/mL | MIC [2]: 0.4 µg/mL (≈ 1.38 µM) | MIC [3]: > 100 µg/mL | MIC (Altrenaria mali): > 100 µg/mL

CN(C)C(=S)SSC(=S)N(C)C [Bis(dimethyl thiocarbamoyl)disulfide, reference compound]
pest or weed control at 500 ppm (Cochliobolus miyabeans): 83.3%

O=C1C2SCCN2C(=O)N1c1cc(Cl)cc(Cl)c1 (stereo not drawn) [Compound No. 1, 6-(3,5-dichlorophenyl)perhydroimidazo[5,1-b]thiazole-5,7-dion]
MIC (Altrenaria Kikuchiana): 3.1 µg/mL (≈ 10.2 µM) | MIC [2]: 3.1 µg/mL (≈ 10.2 µM) | pest or weed control at 500 ppm (Cochliobolus miyabeans): 95.1% | MIC [3]: 3.1 µg/mL (≈ 10.2 µM) | Preventive Value (Sclerotinia sclerotiorum [1]; 50 ppm): 95.3% | Preventive Value (Sclerotinia sclerotiorum [1]; 100 ppm): 98.2% | Preventive Value (Sclerotinia sclerotiorum [1]; 200 ppm): 100% | MIC (Botrytis allii): 6.2 µg/mL (≈ 20.5 µM) | pest or weed control at 62.5 ppm (Botrytis cinerea): 100% | pest or weed control at 125 ppm (Botrytis cinerea): 100% | pest or weed control at 250 ppm (Botrytis cinerea): 100% | pest or weed control at 500 ppm (Botrytis cinerea): 100% | MIC (Sclerotinia sclerotiorum [4]): 1.6 µg/mL (≈ 5.28 µM) | MIC (Altrenaria mali): 3.1 µg/mL (≈ 10.2 µM)

O=C1C2SCCN2C(=S)N1c1cc(Cl)cc(Cl)c1 (stereo not drawn) [Compound No. 2, 6-(3,5-dichlorophenyl)perhydroimidazo[5,1-b]thiazole-5-thion-7-on]
pest or weed control at 500 ppm (Cochliobolus miyabeans): 88.4% | Preventive Value (Sclerotinia sclerotiorum [1]; 50 ppm): 93.8% | Preventive Value (Sclerotinia sclerotiorum [1]; 100 ppm): 96.5% | Preventive Value (Sclerotinia sclerotiorum [1]; 200 ppm): 100% | pest or weed control at 500 ppm (Botrytis cinerea): 92%

CC12SCCN1C(=O)N(c1cc(Cl)cc(Cl)c1)C2=O (stereo not drawn) [Compound No. 3, 7a-methyl-6-(3,5-dichlorophenyl)perhydroimidazo[5,1-b]thiazole-5,7-dion]
MIC (Altrenaria Kikuchiana): 3.1 µg/mL (≈ 9.77 µM) | MIC [2]: 1.6 µg/mL (≈ 5.04 µM) | pest or weed control at 500 ppm (Cochliobolus miyabeans): 96.2% | MIC [3]: 0.8 µg/mL (≈ 2.52 µM) | MIC (Botrytis allii): 3.1 µg/mL (≈ 9.77 µM) | pest or weed control at 62.5 ppm (Botrytis cinerea): 100% | pest or weed control at 125 ppm (Botrytis cinerea): 100% | pest or weed control at 250 ppm (Botrytis cinerea): 100% | pest or weed control at 500 ppm (Botrytis cinerea): 100% | MIC (Sclerotinia sclerotiorum [4]): 1.6 µg/mL (≈ 5.04 µM) | MIC (Altrenaria mali): 3.1 µg/mL (≈ 9.77 µM)

CC12SCCN1C(=S)N(c1cc(Cl)cc(Cl)c1)C2=O (stereo not drawn) [Compound No. 4, 7a-methyl-6-(3,5-dichlorophenyl)perhydroimidazo[5,1-b]thiazole-5-thion-7-on]
pest or weed control at 500 ppm (Cochliobolus miyabeans): 85.7% | pest or weed control at 500 ppm (Botrytis cinerea): 93%

O=C1C2N(CCS2(=O)=O)C(=O)N1c1cc(Cl)cc(Cl)c1 (stereo not drawn) [Compound No. 5, 6-(3,5-dichlorophenyl)perhydroimidazo[5,1-b]thiazole-5,7-dion-1,1-dioxide]
pest or weed control at 500 ppm (Cochliobolus miyabeans): 89.6% | pest or weed control at 500 ppm (Botrytis cinerea): 91%

CC12C(=O)N(c3cc(Cl)cc(Cl)c3)C(=O)N1CCS2(=O)=O (stereo not drawn) [Compound No. 6, 7a-methyl-6-(3,5-dichlorophenyl)perhydroimidazo[5,1-b]thiazole-5,7-dion-1,1-dioxide]
pest or weed control at 500 ppm (Cochliobolus miyabeans): 90.6% | pest or weed control at 500 ppm (Botrytis cinerea): 90%

CCCC12SCCN1C(=O)N(c1cc(Cl)cc(Cl)c1)C2=O (stereo not drawn) [Compound No. 8, 7a-n-propyl-6-(3,5-dichlorophenyl)perhydroimidazo[5,1-b]thiazole-5,7-dion]
pest or weed control at 500 ppm (Cochliobolus miyabeans): 85.4% | pest or weed control at 500 ppm (Botrytis cinerea): 97%

CCC12SCCN1C(=S)N(c1cc(Cl)cc(Cl)c1)C2=O (stereo not drawn) [Compound No. 9, 7a-ethyl-6-(3,5-dichlorophenyl)perhydroimidazo[5,1-b]thiazole-5-thion-7-on]
pest or weed control at 500 ppm (Cochliobolus miyabeans): 82.9% | pest or weed control at 500 ppm (Botrytis cinerea): 96%

CCCC12SCCN1C(=S)N(c1cc(Cl)cc(Cl)c1)C2=O (stereo not drawn) [Compound No. 10, 7a-n-propyl-6-(3,5-dichlorophenyl)perhydroimidazo[5,1-b]thiazole-5-thion-7-on]
pest or weed control at 500 ppm (Cochliobolus miyabeans): 83.2% | pest or weed control at 500 ppm (Botrytis cinerea): 94%

N#Cc1c(Cl)c(Cl)c(Cl)c(C#N)c1Cl [Tetrachloro isophthalonitrile, reference compound]
pest or weed control at 500 ppm (Botrytis cinerea): 65%

CCC12SCCN1C(=O)N(c1cc(Cl)cc(Cl)c1)C2=O (stereo not drawn) [compound 7, 7a-ethyl-6-(3,5-dichlorophenyl)perhydroimidazo[5,1-b]thiazole-5,7-dion]
pest or weed control at 500 ppm (Cochliobolus miyabeans): 90.8% | pest or weed control at 500 ppm (Botrytis cinerea): 100%
